Patent US20120010075A1 (priority 2009, published 2012)
Where two headings read alike, the source gives them in different places.

Columns and labels:
[1] = tested on: Leptosphaeria nodorum (LEPTNO); test: In vitro fungitoxicity of hydrazones with and without copper towards Leptosphaeria nodorum (Example 26); assay type: cell-based; conditions: 72 h at 25° C.; for inhibition of growth at 0.05 µg/mL: Parastagonospora nodorum, 72 h, read-out: LEPTNO % Inhn. Minus Copper Observed
[2] = tested on: Phytophthora infestans; assay type: in vivo, Phytophthora infestans on tomato; conditions: applied 24 h before inoculation, assessed 7 days after inoculation
[3] = copper-minus medium, test compound Concn. 0.05 μg/mL
[4] = copper-plus medium (CuCl2 10 μM), test compound Concn. 0.05 μg/mL
[5] = hydrazone 50 ppm with 50 μM CuCl2.2H2O, tomato late blight
[6] = compound 0.05 μg/mL, copper-minus medium
[7] = compound 0.05 μg/mL, copper-plus medium (CuCl2.2H2O)
[8] = hydrazone 50 ppm + 50 μM CuCl2.2H2O, tomato

SMILES	inhibition of growth at 0.05 µg/mL [1, 3] [%]	LEPTNO % Inhn. Plus Copper Observed [1, 4] [%]	melting point	TLB % Control [2, 5] [%]	inhibition of growth at 0.05 µg/mL [1, 6] [%]	LEPTNO % Inhn. Plus Copper Observed [1, 7] [%]	TLB % Control [2, 8] [%]	LEPTNO % Inhn. Minus Copper Observed [1, 6] [%]
COc1ccc(/C(C)=N/NC(=O)c2cccc(Cl)c2)c(O)c1OC [Example 556]	7.7	95.9	194 to 201 °C	75.0	–	–	–	–
C/C(=N\NC(=O)c1ccccc1Cl)c1cc(F)cc(F)c1O [Example 576]	0.7	97.9	205 to 209 °C	90.0	–	–	–	–
O=C(N/N=C/c1cc(Cl)ccc1O)c1cc(Cl)ccc1Cl [Example 189]	–	–	185 to 188 °C	–	19.2	95.9	72.7	–
C/C(=N\NC(=O)c1ccc(Cl)cc1O)c1cc(Cl)cc(Cl)c1O [Example 489]	15.8	97.8	314 to 317 °C	85.0	–	–	–	–
O=C(N/N=C/c1cc(Cl)cc(Cl)c1O)c1cc(Br)ccc1Cl [Example 98]	–	–	191 to 192 °C	–	16.8	98.1	79.7	–
COc1ccc(/C(C)=N/NC(=O)c2cccc(Cl)c2)c(O)c1 [Example 285]	–	–	212 to 214 °C	–	3.4	97.5	51.0	–
O=C(N/N=C/c1cc(Cl)ccc1O)c1cccc(F)c1 [Example 420]	11.4	97.5	205 to 224 °C	100.0	–	–	–	–
C/C(=N\NC(=O)c1ccccc1[N+](=O)[O-])c1cc(Cl)cc(Cl)c1O [Example 142]	–	–	250 to 253 °C	–	1.1	98.2	79.0	–
O=C(N/N=C/c1cc(C(F)(F)F)ccc1O)c1cccc(F)c1 [Example 437]	9.2	97.0	188 to 196 °C	100.0	–	–	–	–
COc1ccc(C(=O)N/N=C(\C)c2cc(Br)cc(Br)c2O)cc1 [Example 546]	7.6	97.7	247 to 248 °C	100.0	–	–	–	–
C/C(=N\NC(=O)c1ccc(C(F)(F)F)cc1)c1cc(C(F)(F)F)ccc1O [Example 536]	21.1	93.4	228 to 234 °C	24.0	–	–	–	–
O=C(N/N=C/c1cc(Cl)cc(C(F)(F)F)c1O)c1ccc([N+](=O)[O-])cc1 [Example 383]	20.3	95.7	245 to 247 °C	100.0	–	–	–	–
COc1cccc(O)c1/C=N/NC(=O)c1ccccc1 [Example 237]	–	–	215 to 216 °C	–	0	91.8	45.0	–
COc1ccc(O)c(/C(C)=N/NC(=O)c2cccc(C)c2)c1 [Example 263]	–	–	131 to 141 °C	–	4.1	97.9	14.0	–
O=C(N/N=C/c1c(O)cccc1Cl)c1ccccc1C(F)(F)F [Example 407]	0	92.0	222 to 226 °C	70.0	–	–	–	–
COc1ccc(O)c(/C(C)=N/NC(=O)c2ccccc2C)c1 [Example 262]	–	–	146 to 155 °C	–	3.1	94.0	4.6	–
O=C(N/N=C/c1cc(Cl)cc(Cl)c1O)c1cccc(Oc2ccccc2)c1 [Example 46]	–	–	170 to 171 °C	–	20.5	95.9	72.7	–
Cc1cccc(/C=N/NC(=O)c2ccccc2)c1O [Example 232]	–	–	186 to 188 °C	–	2.3	97.5	57.6	–
C/C(=N\NC(=O)c1ccccc1Cl)c1cccc([N+](=O)[O-])c1O [Example 272]	–	–	196 to 205 °C	–	2	98.1	37.0	–
O=C(N/N=C/c1c(Cl)ccc(Cl)c1O)c1ccc([N+](=O)[O-])cc1 [Example 375]	7.2	98.2	250 to 300 °C (dec.)	90.0	–	–	–	–

SMILES	inhibition of growth at 0.05 µg/mL [1, 3] [%]	LEPTNO % Inhn. Plus Copper Observed [1, 4] [%]	melting point	TLB % Control [2, 5] [%]	inhibition of growth at 0.05 µg/mL [1, 6] [%]	LEPTNO % Inhn. Plus Copper Observed [1, 7] [%]	TLB % Control [2, 8] [%]	LEPTNO % Inhn. Minus Copper Observed [1, 6] [%]
O=C(N/N=C/c1c(O)cccc1F)c1ccccc1 [Example 245]	–	–	216 to 218 °C	–	0	96.7	52.7	–
O=C(N/N=C/c1cc(Br)ccc1O)c1ccc(C(F)(F)F)cc1 [Example 184]	–	–	219 to 222 °C	–	7.1	97.0	70.9	–
C/C(=N\NC(=O)c1ccccc1Br)c1cc(Br)cc(Br)c1O [Example 549]	0	97.3	214 to 216 °C	94.0	–	–	–	–
O=C(N/N=C/c1c(O)cccc1Cl)c1cccc(Cl)c1 [Example 402]	0	95.2	250 to 253 °C	100.0	–	–	–	–
C/C(=N\NC(=O)c1cccc(Cl)c1)c1cc(C)ccc1O [Example 316]	4.5	97.1	231 to 241 °C	14.0	–	–	–	–
O=C(N/N=C/c1cc(Cl)cc(C(F)(F)F)c1O)c1ccc(F)cc1 [Example 379]	26.7	98.2	227 to 228 °C	100.0	–	–	–	–
COc1ccc(C(=O)N/N=C(\C)c2ccc(OC)c(OC)c2O)cc1 [Example 558]	3.8	95.7	230 to 232 °C	80.0	–	–	–	–
CC/C(=N\NC(=O)c1ccc(C)cc1C)c1ccccc1O [Example 34]	–	–	175 to 176 °C	–	–	97.8	68.4	0.0
O=C(N/N=C/c1cc(Cl)cc(Br)c1O)c1ccc(OC(F)(F)F)cc1 [Example 106]	–	–	210 to 220 °C	–	0	94.6	88.7	–
C/C(=N\NC(=O)c1cccc(Cl)c1)c1ccc(Cl)cc1O [Example 256]	–	–	222 to 223 °C	–	3	98.7	18.0	–
O=C(N/N=C/c1cc(Cl)cc(Cl)c1O)c1cc2ccccc2cc1O [Example 563]	20.6	96.9	287 to 292 °C	70.0	–	–	–	–
Cc1ccc(/C=N/NC(=O)c2ccccc2)c(O)c1 [Example 234]	–	–	179 to 182 °C	–	0	94.3	72.9	–
Cc1cc(C)cc(C(=O)N(/N=C/c2cc(Cl)cc(Cl)c2O)C(C)(C)C)c1 [Example 211]	–	–	220 to 227 °C	–	7	97.1	16.0	–
C/C(=N\NC(=O)c1ccccc1Br)c1cc(C(F)(F)F)ccc1O [Example 537]	12.2	96.2	192 to 200 °C	90.0	–	–	–	–
C/C(=N\NC(=O)c1ccccc1)c1cc(C(F)(F)F)ccc1O [Example 527]	7.6	97.6	226 to 229 °C	78.0	–	–	–	–
COc1cc(O)c(/C(C)=N/NC(=O)c2ccccc2O)c(OC)c1 [Example 586]	0	87.3	182 to 199 °C	31.0	–	–	–	–
CC/C(=N\NC(=O)c1ccc(C)cc1C)c1ccccc1O [Example 30]	–	–	159 to 160 °C	–	0	97.0	40.7	–
C/C(=N\NC(=O)c1ccccc1C(F)(F)F)c1ccccc1O [Example 58]	–	–	208 to 210 °C	–	0	95.0	49.0	–
O=C(N/N=C/c1cc(Cl)cc(C(F)(F)F)c1O)c1cccc(Cl)c1 [Example 380]	36.1	98.3	228 to 229 °C	100.0	–	–	–	–
COc1ccc(C(=O)N/N=C(\C)c2ccc(OC)cc2O)cc1 [Example 482]	0	96.4	226 to 227 °C	66.0	–	–	–	–
